The results in this text go back to patent publication US11807644B2 (PMV Pharmaceuticals, Inc., priority 2020, dated 2023).

One assay concerns the target T1, recombinant His-tag Y220C p53 DBD protein (Homo sapiens, UniProt P04637, Y220C).
T1 construct: recombinant His-tag Y220C p53 DBD protein (amino acids #˜94-312)
The assay can be described thus: In vitro DNA binding activity assay (TR-FRET): binding of His-tag Y220C p53 DBD to biotin-labeled consensus DNA. Format: biochemical. The following applies: SC150 = concentration to increase DNA binding by […], His-tag Y220C p53 DBD, biotin-labeled consensus DNA. (TR-FRET usually uses a lanthanide donor and a delayed reading to cut background.)
Turning to `COCC1(n2ccc(C(=O)NCc3nc(-c4cc5c(N[C@@H]6CCN(C)C[C@@H]6F)cccc5n4CC(F)(F)F)no3)c2)CC1` [Compound 426B, N-{[3-(4-{[(3S,4R)-3-fluoro-1-methylpiperidin-4-yl]amino}-1-(2,2,2-trifluoroethyl)-1H-indol-2-yl)-1,2,4-oxadiazol-5-yl]methyl}-1-[1-(methoxymethyl)cyclopropyl]-1H-pyrrole-3-carboxamide], the “Y220C SC150 (μM)” value is reported as “* (* = 0 μM ≤ SC150 < 0.1 μM)”.
Still for that read-out and setting: to `CN1CCC(Nc2cccc3c2cc(-c2noc(CNC(=O)c4ccccc4)n2)n3CC(F)(F)F)CC1` [Compound 144B, N-[(3-{4-[(1-methylpiperidin-4-yl)amino]-1-(2,2,2-trifluoroethyl)-1H-indol-2-yl}-1,2,4-oxadiazol-5-yl)methyl]benzamide] belongs “* (* = 0 μM ≤ SC150 < 0.1 μM)”.
`CN1CC[C@@H](Nc2cccc3c2cc(-c2noc(CNC(=O)c4ccn(C5CCC(F)(F)C5)c4)n2)n3CC(F)(F)F)[C@@H](F)C1` (stereo partly drawn) [Compound 347B, 1-(3,3-difluorocyclopentyl)-N-{[3-(4-{[(3S,4R)-3-fluoro-1-methylpiperidin-4-yl]amino}-1-(2,2,2-trifluoroethyl)-1H-indol-2-yl)-1,2,4-oxadiazol-5-yl]methyl)-1H-pyrrole-3-carboxamide]: the “Y220C SC150 (μM)” value is “* (* = 0 μM ≤ SC150 < 0.1 μM)”.
The same measure, in the same setting: to `COc1cc(S(C)(=O)=O)ccc1NCc1nnc(-c2cc3c(N[C@H]4CCN(C)C[C@H]4F)cccc3n2CC(F)(F)F)o1` (racemic) [Compound 114B, (+/−)-N-[(3R,4S)-3-fluoro-1-methylpiperidin-4-yl]-2-(5-{[(4-methanesulfonyl-2-methoxyphenyl)amino]methyl}-1,3,4-oxadiazol-2-yl)-1-(2,2,2-trifluoroethyl)-1H-indol-4-amine] belongs “** (** = 0.1 μM ≤ SC150 < 0.5 μM)”; to `COC1CCCC1n1ccc(C(=O)NCc2nc(-c3cc4c(N[C@@H]5CN(C)CC[C@@H]5F)cccc4n3CC(F)(F)F)no2)c1` (stereo in doubt) [Compound 410B, N-{[3-(4-{[(3R,4S)-4-fluoro-1-methylpiperidin-3-yl]amino}-1-(2,2,2-trifluoroethyl)-1H-indol-2-yl)-1,2,4-oxadiazol-5-yl]methyl}-1-[(1R,2R)-2-methoxycyclopentyl]-1H-pyrrole-3-carboxamide], “* (* = 0 μM ≤ SC150 < 0.1 μM)”.
For `CN1CC[C@@H](Nc2cccc3c2cc(-c2noc(CNC(=O)c4cnn(C5CCOCC5)c4)n2)n3CC(F)(F)F)[C@@H](F)C1` [Compound 325B, N-{[3-(4-{[(3S,4R)-3-fluoro-1-methylpiperidin-4-yl]amino}-1-(2,2,2-trifluoroethyl)-1H-indol-2-yl)-1,2,4-oxadiazol-5-yl]methyl}-1-(oxan-4-yl)-1H-pyrazole-4-carboxamide], the “Y220C SC150 (μM)” value was “* (* = 0 μM ≤ SC150 < 0.1 μM)”.
As for `CN1CC[C@@H](Nc2cccc3c2cc(-c2noc(CNC(=O)c4csc(N5CC6CC(C5)O6)n4)n2)n3CC(F)(F)F)[C@@H](F)C1` [Compound 525B], the “Y220C SC150 (μM)” value is given as “** (** = 0.1 μM ≤ SC150 < 0.5 μM)”.
On the same count and under the same terms, to `CN1CC[C@@H](Nc2cccc3c2cc(-c2noc(CNC(=O)c4ccn(CCC(=O)O)c4)n2)n3CC(F)(F)F)[C@@H](F)C1` [Compound 248B, 3-[3-({[3-(4-{[(3S,4R)-3-fluoro-1-methylpiperidin-4-yl]amino}-1-(2,2,2-trifluoroethyl)-1H-indol-2-yl)-1,2,4-oxadiazol-5-yl]methyl}carbamoyl)-1H-pyrrol-1-yl]propanoic acid] belongs “* (* = 0 μM ≤ SC150 < 0.1 μM)”.
As to `CN1CC[C@@H](Nc2cccc3c2cc(-c2noc(CNC(=O)c4cnc(C5(C)CCOCC5)s4)n2)n3CC(F)(F)F)[C@@H](F)C1` [Compound 473B, N-{[3-(4-{[(3S,4R)-3-fluoro-1-methylpiperidin-4-yl]amino}-1-(2,2,2-trifluoroethyl)-1H-indol-2-yl)-1,2,4-oxadiazol-5-yl]methyl}-2-(4-methyloxan-4-yl)-1,3-thiazole-5-carboxamide], the “Y220C SC150 (μM)” value is “* (* = 0 μM ≤ SC150 < 0.1 μM)”.
Consider `CN1CC[C@H](Nc2cccc3c2cc(-c2noc(CNC(=O)C4CC4)n2)n3CC(F)(F)F)[C@H](F)C1` [Compound 174B, N-{[3-(4-{[(3R,4S)-3-fluoro-1-methylpiperidin-4-yl]amino}-1-(2,2,2-trifluoroethyl)-1H-indol-2-yl)-1,2,4-oxadiazol-5-yl]methyl}cyclopropanecarboxamide], for which the “Y220C SC150 (μM)” value is “* (* = 0 μM ≤ SC150 < 0.1 μM)”.
On the same count and under the same terms, to `C[C@H]1C[C@H]1C(=O)NCc1nnc(-c2cc3c(NC4CCN(C)CC4)cccc3n2CC(F)(F)F)s1` (racemic) [Compound 33B, (+/−)-(1R,2S)-2-methyl-N-[(5-{4-[(1-methylpiperidin-4-yl)amino]-1-(2,2,2-trifluoroethyl)-1H-indol-2-yl}-1,3,4-thiadiazol-2-yl)methyl]cyclopropane-1-carboxamide] belongs “** (** = 0.1 μM ≤ SC150 < 0.5 μM)”; to `CN1CCC(Nc2cccc3c2cc(-c2nc(CNC(=O)c4ccn(C)n4)no2)n3CC(F)(F)F)CC1` [Compound 141B, 1-methyl-N-[(5-{4-[(1-methylpiperidin-4-yl)amino]-1-(2,2,2-trifluoroethyl)-1H-indol-2-yl}-1,2,4-oxadiazol-3-yl)methyl]-1H-pyrazole-3-carboxamide], “** (** = 0.1 μM ≤ SC150 < 0.5 μM)”.
With `CN1CC[C@@H](Nc2cccc3c2cc(-c2noc(C(=O)NCC4CC4)n2)n3CC(F)(F)F)[C@@H](F)C1` [Compound 545B, N-(cyclopropylmethyl)-3-(4-{[(3S,4R)-3-fluoro-1-methylpiperidin-4-yl]amino}-1-(2,2,2-trifluoroethyl)-1H-indol-2-yl)-1,2,4-oxadiazole-5-carboxamide], the “Y220C SC150 (μM)” value is “** (** = 0.1 μM ≤ SC150 < 0.5 μM)”.
Regarding `CN1CCC(Nc2cccc3c2cc(-c2nc(CNC(=O)c4cccs4)no2)n3CC(F)(F)F)CC1` [Compound 139B, N-[(5-{4-[(1-methylpiperidin-4-yl)amino]-1-(2,2,2-trifluoroethyl)-1H-indol-2-yl}-1,2,4-oxadiazol-3-yl)methyl]thiophene-2-carboxamide], the “Y220C SC150 (μM)” value is recorded as “** (** = 0.1 μM ≤ SC150 < 0.5 μM)”.
`CN1CC[C@@H](Nc2cccc3c2cc(-c2nccs2)n3CC(F)(F)F)[C@@H](F)C1` (racemic) [Compound 93B, (+/−)-N-[(3R,4S)-3-fluoro-1-methylpiperidin-4-yl]-2-(1,3-thiazol-2-yl)-1-(2,2,2-trifluoroethyl)-1H-indol-4-amine]: the “Y220C SC150 (μM)” value was “*** (*** = 0.5 μM ≤ SC150 < 1 μM)”.
Same read-out and setting: then `CN1CC[C@@H](Nc2cccc3c2cc(-c2noc(CNC(=O)c4coc(C(C)(C)C)n4)n2)n3CC(F)(F)F)[C@@H](F)C1` [Compound 440B, 2-tert-butyl-N-{[3-(4-{[(3S,4R)-3-fluoro-1-methylpiperidin-4-yl]amino}-1-(2,2,2-trifluoroethyl)-1H-indol-2-yl)-1,2,4-oxadiazol-5-yl]methyl}-1,3-oxazole-4-carboxamide], with “* (* = 0 μM ≤ SC150 < 0.1 μM)”; and `CN1CC[C@@H](Nc2cccc3c2cc(-c2noc(CNC(=O)c4cn5ccccc5n4)n2)n3CC(F)(F)F)[C@@H](F)C1` [Compound 217B, N-{[3-(4-{[(3S,4R)-3-fluoro-1-methylpiperidin-4-yl]amino}-1-(2,2,2-trifluoroethyl)-1H-indol-2-yl)-1,2,4-oxadiazol-5-yl]methyl}imidazo[1,2-a]pyridine-2-carboxamide], with “* (* = 0 μM ≤ SC150 < 0.1 μM)”.
As for `CN1CCC(Nc2cccc3c2cc(-c2nnc(CNC(=O)c4cn[nH]c4)s2)n3CC(F)(F)F)CC1` [Compound 72B, N-[(5-{4-[(1-methylpiperidin-4-yl)amino]-1-(2,2,2-trifluoroethyl)-1H-indol-2-yl}-1,3,4-thiadiazol-2-yl)methyl]-1H-pyrazole-4-carboxamide], the “Y220C SC150 (μM)” value is “* (* = 0 μM ≤ SC150 < 0.1 μM)”.
Turning to `CN1CCC(Nc2cccc3c2cc(-c2noc(CNC(=O)C4CC4)n2)n3CC(F)(F)F)C1` (racemic) [Compound 169B, (+/−)-N-[(3-{4-[(1-methylpyrrolidin-3-yl)amino]-1-(2,2,2-trifluoroethyl)-1H-indol-2-yl}-1,2,4-oxadiazol-5-yl)methyl]cyclopropanecarboxamide], the “Y220C SC150 (μM)” value was “* (* = 0 μM ≤ SC150 < 0.1 μM)”.
Still for that read-out and setting: to `COCC(C)(C)n1ccc(C(=O)NCc2nc(-c3cc4c(N[C@@H]5CCN(C)C[C@@H]5F)cccc4n3CC(F)(F)F)no2)n1` [Compound 547B, N-{[3-(4-{[(3S,4R)-3-fluoro-1-methylpiperidin-4-yl]amino}-1-(2,2,2-trifluoroethyl)-1H-indol-2-yl)-1,2,4-oxadiazol-5-yl]methyl}-1-(1-methoxy-2-methylpropan-2-yl)-1H-pyrazole-3-carboxamide] belongs “* (* = 0 μM ≤ SC150 < 0.1 μM)”; to `C[C@H]1C[C@H]1C(=O)NCc1nc(-c2cc3c(NC4CCN(C)CC4)cccc3n2CC(F)(F)F)no1` (racemic) [Compound 158B, (+/−)-(1R,2S)-2-methyl-N-[(3-{4-[(1-methylpiperidin-4-yl)amino]-1-(2,2,2-trifluoroethyl)-1H-indol-2-yl}-1,2,4-oxadiazol-5-yl)methyl]cyclopropane-1-carboxamide], “* (* = 0 μM ≤ SC150 < 0.1 μM)”.
The same measure, in the same setting: to `CN1CCC(Nc2cccc3c2cc(-c2nnc(CNC(=O)c4cccc(CN5CCOCC5)c4)s2)n3CC(F)(F)F)CC1` [Compound 46B, N-[(5-{4-[(1-methylpiperidin-4-yl)amino]-1-(2,2,2-trifluoroethyl)-1H-indol-2-yl}-1,3,4-thiadiazol-2-yl)methyl]-3-[(morpholin-4-yl)methyl]benzamide] belongs “* (* = 0 μM ≤ SC150 < 0.1 μM)”.

The assay is the same for the next values; noted with them: concentration to increase DNA binding by […], incubated at either 27° C. or 29° C. for 60 min.
On to `O=C(NCc1ccc(-c2cc3c(NC4CCS(=O)(=O)CC4)cccc3n2CC(F)(F)F)cc1)Nc1ccccc1` [Compound 19A, 3-[(4-{4-[(1,1-dioxo-1λ^6-thian-4-yl)amino]-1-(2,2,2-trifluoroethyl)-1H-indol-2-yl}phenyl)methyl]-1-phenylurea], for which the “SC150 (μM)” value is given as “+ (+ = 0 μM ≤ SC150 < 2 μM)”.
